Reference: US9315459B2, “Crystalline forms of 4-[2-(4-methylphenylsulfanyl)-phenyl] piperidine” (priority 2006, dated 2016)

Experiments:
[1] = target: T1, human-homomeric 5-HT3A receptors (Homo sapiens, UniProt P46098); assay: Voltage clamp in oocytes expressing human-homomeric 5-HT3A receptors; format: cell-based; conditions: agonism at higher concentrations
T1 sequence (P46098 24-478): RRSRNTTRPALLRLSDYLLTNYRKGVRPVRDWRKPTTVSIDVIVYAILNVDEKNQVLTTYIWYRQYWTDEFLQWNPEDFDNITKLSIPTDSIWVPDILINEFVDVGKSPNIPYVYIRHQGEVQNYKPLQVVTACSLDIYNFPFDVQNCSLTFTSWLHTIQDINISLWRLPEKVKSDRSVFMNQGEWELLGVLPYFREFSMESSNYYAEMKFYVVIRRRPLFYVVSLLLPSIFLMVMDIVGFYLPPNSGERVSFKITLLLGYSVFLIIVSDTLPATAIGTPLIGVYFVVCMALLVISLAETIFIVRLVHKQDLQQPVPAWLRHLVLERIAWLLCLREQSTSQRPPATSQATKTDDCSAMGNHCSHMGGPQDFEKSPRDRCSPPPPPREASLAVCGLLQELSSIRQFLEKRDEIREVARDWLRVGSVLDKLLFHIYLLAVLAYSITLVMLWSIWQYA
Procedure: The experiments were carried out as follows. […] Oocytes avoid of the follicle layer were selected and incubated for 24 hours in Modified Barth's Saline buffer [88 mM NaCl, 1 mM KCl, 15 mM HEPES, 2.4 mM NaHCO3, 0.41 mM CaCl2, 0.82 mM MgSO4, 0.3 mM Ca(NO3)2] supplemented with 2 mM sodium pyruvate, 0.1 U/l penicillin and 0.1 μg/l streptomycin. Stage […] oocytes were identified and injected with 12-48 nl of nuclease free water containing 14-50 pg of cRNA coding for human 5-HT3A receptors receptors and incubated at 18° C. until they were used for electrophysiological recordings (1-7 days after injection). […] Cells were impaled with agar plugged 0.5-1 MΩ electrodes containing 3 M KCl and voltage clamped at −90 mV by a GeneClamp 500B amplifier. The oocytes were continuously perfused with Ringer buffer and the drugs were applied in the perfusate.

[2] = test system: extracellular levels of acetylcholine; assay: Microdialysis, extracellular acetylcholine in prefrontal cortex and ventral hippocampus of freely-moving rats (Example 2G); format: in vivo, rat; conditions: Sprague-Dawley rats, FIG. 25a+b
Procedure: The experiment was designed to evaluate the effects of compounds of the present invention on extracellular levels of acetylcholine in the prefrontal cortex and ventral hippocampus of freely-moving rats.
Male Sprague-Dawley rats, initially weighing 275-300 g, were used. The animals were housed under a 12-hr light/dark cycle under controlled conditions for regular in-door temperature (21±2° C.) and humidity (55±5%) with food and tap water available ad libitum.
Rats were anaesthetised with hypnorm/dormicum (2 ml/kg) and intracerebral guide cannulas (CMA/12) were stereotaxically implanted into the hippocampus, aiming to position the dialysis probe tip in the ventral hippocampus (co-ordinates: 5.6 mm posterior to bregma, lateral −5.0 mm, 7.0 mm ventral to dura or in the frontal cortex (co-ordinates: 3.2 mm anterior to bregma; lateral, 0.8 mm; 4.0 mm ventral to dura). Anchor screws and acrylic cement were used for fixation of the guide cannulas. The body temperature of the animals was monitored by rectal probe and maintained at 37° C. The rats were allowed to recover from surgery for 2 days, housed singly in cages. On the day of the experiment a microdialysis probe (CMA/12, 0.5 mm diameter, 3 mm length) was inserted through the guide cannula.
The probes were connected via a dual channel swivel to a microinjection pump. […]

human 5-HT2A receptors = target: T2, human 5-HT2A receptors (Homo sapiens, UniProt P28223); assay: Functional assay, 5-HT evoked release of Ca2+ in CHO cells expressing human 5-HT2A receptors (FLIPR); format: cell-based; conditions: mammalian cells expressing human 5-HT2A
T2 construct: expressed in transfected cells; host or cells: CHO cells (functional assay)
T2 sequence (P28223 whole entry): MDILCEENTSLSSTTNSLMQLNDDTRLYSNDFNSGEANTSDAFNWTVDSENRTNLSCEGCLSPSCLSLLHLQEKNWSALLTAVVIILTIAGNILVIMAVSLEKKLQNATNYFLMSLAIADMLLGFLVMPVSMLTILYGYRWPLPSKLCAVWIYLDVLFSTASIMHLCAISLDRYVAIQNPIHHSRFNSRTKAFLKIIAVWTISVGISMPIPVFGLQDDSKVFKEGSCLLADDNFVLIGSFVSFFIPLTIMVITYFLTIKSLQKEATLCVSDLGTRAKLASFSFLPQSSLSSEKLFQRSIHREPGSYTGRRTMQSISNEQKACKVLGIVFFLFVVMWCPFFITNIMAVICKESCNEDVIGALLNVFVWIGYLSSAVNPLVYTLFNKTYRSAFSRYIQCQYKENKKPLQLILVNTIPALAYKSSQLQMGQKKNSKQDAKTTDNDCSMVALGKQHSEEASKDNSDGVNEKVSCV
Procedure: The experiment was carried out as follows. 2 or 3 days before the experiment CHO cells expressing 250 fmol/mg human 5-HT2A receptors are plated at a density sufficient to yield a mono-confluent layer on the day of the experiment. […] Lacer intensity was set to a suitable level to obtain basal values of approximately 8000-10000 fluorescence units. The variation in basal fluorescence should be less than 10%. […] Ki values are calculated using Cheng-Prusoff equation.

SMILES: Cc1ccc(Sc2ccccc2C2CCNCC2)cc1 [compound I, 4-[2-(4-methylphenylsulfanyl)-phenyl]piperidine]
- Maximal current, % of the maximal current elicited by 5-HT [1]: 70-80%
- Extracellular level of acetylcholine [2]: increase
- Mode of action at human 5-HT2A receptors (human 5-HT2A receptors): competitive antagonistic properties
